What was measured:
[1] = system: Tyrosine-protein kinase ABL1 (Homo sapiens), P00519 [Y253F]; details: Compound concentration 100.0 nM
[2] = target: Calcium/calmodulin-dependent protein kinase type 1B (Homo sapiens) (UniProt Q6P2M8); details: Compound concentration 100.0 nM
[3] = target: Calcium/calmodulin-dependent protein kinase kinase 1 (Homo sapiens) (UniProt Q8N5S9); details: Compound concentration 100.0 nM
[4] = target: Peripheral plasma membrane protein CASK (Homo sapiens) (UniProt O14936); details: Compound concentration 100.0 nM
[5] = target: Cyclin-dependent kinase-like 5 (Homo sapiens) (UniProt O76039); details: Compound concentration 100.0 nM
[6] = target: Citron Rho-interacting kinase (Homo sapiens) (UniProt O14578); details: Compound concentration 100.0 nM
[7] = target: Casein kinase I isoform alpha-like (Homo sapiens) (UniProt Q8N752); details: Compound concentration 100.0 nM
[8] = target: Casein kinase II subunit alpha (Homo sapiens) (UniProt P68400); details: Compound concentration 100.0 nM
[9] = target: Ephrin type-B receptor 2 (Homo sapiens) (UniProt P29323); details: Compound concentration 100.0 nM
[10] = system: Receptor-type tyrosine-protein kinase FLT3 (Homo sapiens), P36888 [UNDEFINED MUTATION]; details: Compound concentration 100.0 nM
[11] = system: Receptor-type tyrosine-protein kinase FLT3 (Homo sapiens), P36888 [N841I]; details: Compound concentration 100.0 nM
[12] = target: Tyrosine-protein kinase Fyn (Homo sapiens) (UniProt P06241); details: Compound concentration 100.0 nM
[13] = target: LIM domain kinase 1 (Homo sapiens) (UniProt P53667); details: Compound concentration 100.0 nM
[14] = target: Leucine-rich repeat serine/threonine-protein kinase 2 (Homo sapiens) (UniProt Q5S007); details: Compound concentration 100.0 nM
Sequence of Leucine-rich repeat serine/threonine-protein kinase 2 (Homo sapiens) (Q5S007 whole entry): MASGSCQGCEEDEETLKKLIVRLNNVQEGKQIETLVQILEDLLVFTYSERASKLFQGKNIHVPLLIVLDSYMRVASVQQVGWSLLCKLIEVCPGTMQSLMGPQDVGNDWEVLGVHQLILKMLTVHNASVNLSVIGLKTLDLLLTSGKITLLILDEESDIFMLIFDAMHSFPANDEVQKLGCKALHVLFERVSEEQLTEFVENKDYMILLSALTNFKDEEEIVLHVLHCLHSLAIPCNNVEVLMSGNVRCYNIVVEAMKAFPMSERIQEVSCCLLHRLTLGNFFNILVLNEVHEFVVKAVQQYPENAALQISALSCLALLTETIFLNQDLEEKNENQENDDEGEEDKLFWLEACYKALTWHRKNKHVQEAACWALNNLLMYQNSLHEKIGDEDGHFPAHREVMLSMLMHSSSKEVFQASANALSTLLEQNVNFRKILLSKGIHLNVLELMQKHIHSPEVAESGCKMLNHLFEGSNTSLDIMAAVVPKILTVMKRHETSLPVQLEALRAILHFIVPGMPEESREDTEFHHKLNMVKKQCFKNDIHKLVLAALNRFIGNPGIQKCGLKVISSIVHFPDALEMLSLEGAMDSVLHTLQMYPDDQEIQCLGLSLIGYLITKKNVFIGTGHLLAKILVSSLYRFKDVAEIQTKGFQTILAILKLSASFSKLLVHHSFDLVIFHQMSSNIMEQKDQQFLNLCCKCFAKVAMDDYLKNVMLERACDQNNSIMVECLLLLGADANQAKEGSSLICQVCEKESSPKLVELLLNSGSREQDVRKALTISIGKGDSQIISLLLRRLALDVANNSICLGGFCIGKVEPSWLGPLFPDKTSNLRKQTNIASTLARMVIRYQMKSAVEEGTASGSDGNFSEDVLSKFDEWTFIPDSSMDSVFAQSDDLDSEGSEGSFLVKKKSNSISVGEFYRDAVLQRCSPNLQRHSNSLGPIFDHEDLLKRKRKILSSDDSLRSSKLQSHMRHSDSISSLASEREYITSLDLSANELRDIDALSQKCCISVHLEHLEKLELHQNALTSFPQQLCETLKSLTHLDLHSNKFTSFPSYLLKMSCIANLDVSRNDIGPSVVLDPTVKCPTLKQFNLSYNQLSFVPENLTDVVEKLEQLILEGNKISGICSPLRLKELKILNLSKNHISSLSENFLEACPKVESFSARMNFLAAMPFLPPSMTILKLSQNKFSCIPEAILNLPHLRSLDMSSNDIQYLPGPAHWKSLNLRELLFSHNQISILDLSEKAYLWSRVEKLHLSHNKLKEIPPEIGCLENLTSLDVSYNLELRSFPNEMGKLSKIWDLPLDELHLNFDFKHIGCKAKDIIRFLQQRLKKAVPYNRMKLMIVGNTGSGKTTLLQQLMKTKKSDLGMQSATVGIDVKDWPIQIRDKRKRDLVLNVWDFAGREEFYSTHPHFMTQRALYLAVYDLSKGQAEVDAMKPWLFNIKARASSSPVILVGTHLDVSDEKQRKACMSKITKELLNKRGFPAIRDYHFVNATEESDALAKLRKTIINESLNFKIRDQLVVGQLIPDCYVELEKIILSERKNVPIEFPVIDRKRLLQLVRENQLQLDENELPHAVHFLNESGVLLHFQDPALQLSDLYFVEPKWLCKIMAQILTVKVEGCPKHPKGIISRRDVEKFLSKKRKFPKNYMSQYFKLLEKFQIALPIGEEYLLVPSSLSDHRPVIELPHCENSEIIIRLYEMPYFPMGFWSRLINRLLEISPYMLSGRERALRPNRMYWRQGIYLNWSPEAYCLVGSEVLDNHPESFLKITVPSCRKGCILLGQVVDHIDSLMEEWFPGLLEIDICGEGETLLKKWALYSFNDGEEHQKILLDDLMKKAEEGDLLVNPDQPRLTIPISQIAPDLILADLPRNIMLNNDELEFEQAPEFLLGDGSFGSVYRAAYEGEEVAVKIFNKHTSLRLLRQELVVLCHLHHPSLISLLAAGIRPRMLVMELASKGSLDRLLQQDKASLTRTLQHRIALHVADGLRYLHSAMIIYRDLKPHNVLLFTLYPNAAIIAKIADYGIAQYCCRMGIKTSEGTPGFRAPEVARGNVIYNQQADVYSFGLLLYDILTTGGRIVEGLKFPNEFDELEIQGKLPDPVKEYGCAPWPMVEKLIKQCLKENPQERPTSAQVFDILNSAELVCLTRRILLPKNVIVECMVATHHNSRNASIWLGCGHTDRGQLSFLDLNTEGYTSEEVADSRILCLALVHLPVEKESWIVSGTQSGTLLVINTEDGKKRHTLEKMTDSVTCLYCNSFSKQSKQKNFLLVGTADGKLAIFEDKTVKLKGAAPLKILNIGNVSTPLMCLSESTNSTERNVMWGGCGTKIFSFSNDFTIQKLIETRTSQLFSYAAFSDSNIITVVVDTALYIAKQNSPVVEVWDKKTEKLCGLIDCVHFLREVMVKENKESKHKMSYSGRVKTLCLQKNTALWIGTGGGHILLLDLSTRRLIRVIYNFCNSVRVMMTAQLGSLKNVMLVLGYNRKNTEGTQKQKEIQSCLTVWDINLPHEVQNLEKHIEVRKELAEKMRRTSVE

[15] = target: Mitogen-activated protein kinase kinase kinase 1 (Homo sapiens) (UniProt Q13233); details: Compound concentration 100.0 nM
[16] = target: Muscle, skeletal receptor tyrosine-protein kinase (Homo sapiens) (UniProt O15146); details: Compound concentration 100.0 nM
Sequence of Muscle, skeletal receptor tyrosine-protein kinase (Homo sapiens) (O15146 whole entry): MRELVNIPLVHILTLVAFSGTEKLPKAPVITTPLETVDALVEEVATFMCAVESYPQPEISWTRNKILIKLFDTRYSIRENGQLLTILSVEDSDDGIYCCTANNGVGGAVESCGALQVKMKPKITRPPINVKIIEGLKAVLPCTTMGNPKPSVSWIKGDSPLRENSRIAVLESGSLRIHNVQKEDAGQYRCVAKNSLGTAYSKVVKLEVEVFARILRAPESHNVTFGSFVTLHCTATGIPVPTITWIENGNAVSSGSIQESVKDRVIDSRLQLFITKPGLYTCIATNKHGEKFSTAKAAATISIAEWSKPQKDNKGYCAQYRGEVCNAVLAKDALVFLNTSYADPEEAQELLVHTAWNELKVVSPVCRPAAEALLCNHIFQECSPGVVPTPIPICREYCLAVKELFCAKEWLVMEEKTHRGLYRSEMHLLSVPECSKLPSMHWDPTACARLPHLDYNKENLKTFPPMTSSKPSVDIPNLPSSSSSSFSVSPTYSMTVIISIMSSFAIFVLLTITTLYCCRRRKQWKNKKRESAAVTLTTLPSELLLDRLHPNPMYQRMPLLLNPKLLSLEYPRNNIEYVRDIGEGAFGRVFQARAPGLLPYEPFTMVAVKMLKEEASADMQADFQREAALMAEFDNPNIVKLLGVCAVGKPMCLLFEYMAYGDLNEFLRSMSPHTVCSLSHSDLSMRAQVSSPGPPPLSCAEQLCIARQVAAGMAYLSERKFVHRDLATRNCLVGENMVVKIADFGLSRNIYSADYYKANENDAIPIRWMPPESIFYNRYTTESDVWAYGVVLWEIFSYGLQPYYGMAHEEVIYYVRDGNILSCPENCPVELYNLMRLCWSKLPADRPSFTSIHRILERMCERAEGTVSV

[17] = target: Mitogen-activated protein kinase kinase kinase 14 (Homo sapiens) (UniProt Q99558); details: Compound concentration 100.0 nM
Sequence of Mitogen-activated protein kinase kinase kinase 14 (Homo sapiens) (Q99558 whole entry, looked up): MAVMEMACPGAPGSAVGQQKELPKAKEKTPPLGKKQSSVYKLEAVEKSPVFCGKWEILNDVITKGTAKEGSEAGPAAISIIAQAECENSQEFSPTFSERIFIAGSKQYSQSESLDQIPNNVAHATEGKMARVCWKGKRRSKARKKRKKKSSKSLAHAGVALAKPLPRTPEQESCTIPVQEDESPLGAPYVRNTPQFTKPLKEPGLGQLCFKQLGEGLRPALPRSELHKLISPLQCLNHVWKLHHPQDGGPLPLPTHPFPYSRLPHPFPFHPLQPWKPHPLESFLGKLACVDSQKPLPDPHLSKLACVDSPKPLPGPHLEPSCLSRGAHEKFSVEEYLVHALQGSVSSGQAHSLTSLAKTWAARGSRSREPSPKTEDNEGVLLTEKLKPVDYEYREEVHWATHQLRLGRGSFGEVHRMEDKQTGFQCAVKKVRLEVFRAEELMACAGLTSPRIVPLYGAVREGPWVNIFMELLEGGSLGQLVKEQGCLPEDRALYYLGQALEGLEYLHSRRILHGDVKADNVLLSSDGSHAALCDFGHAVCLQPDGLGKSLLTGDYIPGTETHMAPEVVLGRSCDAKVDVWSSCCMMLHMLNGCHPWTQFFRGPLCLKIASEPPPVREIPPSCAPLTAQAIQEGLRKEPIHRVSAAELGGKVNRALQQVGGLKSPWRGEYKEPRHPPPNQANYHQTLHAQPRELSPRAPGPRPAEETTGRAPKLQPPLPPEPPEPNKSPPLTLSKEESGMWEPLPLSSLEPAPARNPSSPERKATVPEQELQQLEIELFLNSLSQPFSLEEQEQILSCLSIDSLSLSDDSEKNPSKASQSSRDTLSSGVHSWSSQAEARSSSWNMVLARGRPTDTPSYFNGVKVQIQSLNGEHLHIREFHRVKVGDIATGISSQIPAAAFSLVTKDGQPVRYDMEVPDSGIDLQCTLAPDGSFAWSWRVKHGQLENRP

[18] = target: Mitogen-activated protein kinase 14 (Homo sapiens) (UniProt Q16539); details: Compound concentration 100.0 nM
[19] = target: Serine/threonine-protein kinase PAK 2 (Homo sapiens) (UniProt Q13177); details: Compound concentration 100.0 nM
[20] = target: Serine/threonine-protein kinase PAK 3 (Homo sapiens) (UniProt O75914); details: Compound concentration 100.0 nM
[21] = target: Membrane-associated tyrosine- and threonine-specific cdc2-inhibitory kinase (Homo sapiens) (UniProt Q99640); details: Compound concentration 100.0 nM
[22] = target: T1, Protein kinase C epsilon type (Homo sapiens) (UniProt Q02156); details: Compound concentration 100.0 nM
T1 sequence (whole entry): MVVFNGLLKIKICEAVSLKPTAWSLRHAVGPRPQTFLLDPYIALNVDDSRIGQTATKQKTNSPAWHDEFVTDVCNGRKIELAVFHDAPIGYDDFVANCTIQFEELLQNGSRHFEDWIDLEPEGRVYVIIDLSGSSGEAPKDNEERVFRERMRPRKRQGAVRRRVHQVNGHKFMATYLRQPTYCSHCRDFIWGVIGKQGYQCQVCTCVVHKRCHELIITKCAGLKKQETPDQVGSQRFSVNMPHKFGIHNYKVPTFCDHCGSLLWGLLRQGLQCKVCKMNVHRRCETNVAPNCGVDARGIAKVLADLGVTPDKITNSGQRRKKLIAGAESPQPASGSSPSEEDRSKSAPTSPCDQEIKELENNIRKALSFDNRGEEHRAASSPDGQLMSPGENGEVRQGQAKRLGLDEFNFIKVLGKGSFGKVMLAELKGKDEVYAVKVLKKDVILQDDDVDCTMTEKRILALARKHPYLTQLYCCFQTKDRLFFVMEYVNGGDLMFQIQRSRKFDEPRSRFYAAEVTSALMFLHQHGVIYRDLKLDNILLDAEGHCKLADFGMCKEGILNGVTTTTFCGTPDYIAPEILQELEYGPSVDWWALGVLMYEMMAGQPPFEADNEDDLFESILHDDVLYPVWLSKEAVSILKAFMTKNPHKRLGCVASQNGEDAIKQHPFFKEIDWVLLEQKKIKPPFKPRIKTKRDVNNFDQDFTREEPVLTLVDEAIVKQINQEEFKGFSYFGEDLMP

[23] = target: cGMP-dependent protein kinase 2 (Homo sapiens) (UniProt Q13237); details: Compound concentration 100.0 nM
[24] = target: Tyrosine-protein kinase Srms (Homo sapiens) (UniProt Q9H3Y6); details: Compound concentration 100.0 nM
Sequence of Tyrosine-protein kinase Srms (Homo sapiens) (Q9H3Y6 whole entry): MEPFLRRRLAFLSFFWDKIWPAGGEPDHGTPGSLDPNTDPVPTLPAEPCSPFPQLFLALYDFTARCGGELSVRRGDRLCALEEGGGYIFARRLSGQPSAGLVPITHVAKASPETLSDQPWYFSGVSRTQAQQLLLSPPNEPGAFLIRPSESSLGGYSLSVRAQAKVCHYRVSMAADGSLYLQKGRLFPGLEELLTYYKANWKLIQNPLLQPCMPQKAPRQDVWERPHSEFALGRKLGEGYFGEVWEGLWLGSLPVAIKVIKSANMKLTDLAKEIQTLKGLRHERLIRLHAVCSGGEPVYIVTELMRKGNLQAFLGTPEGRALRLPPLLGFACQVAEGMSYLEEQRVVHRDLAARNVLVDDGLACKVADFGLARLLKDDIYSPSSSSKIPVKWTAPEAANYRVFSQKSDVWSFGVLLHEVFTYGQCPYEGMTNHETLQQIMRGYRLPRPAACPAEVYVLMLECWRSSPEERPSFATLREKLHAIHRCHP

[25] = target: Serine/threonine-protein kinase 33 (Homo sapiens) (UniProt Q9BYT3); details: Compound concentration 100.0 nM
[26] = target: Serine/threonine-protein kinase 35 (Homo sapiens) (UniProt Q8TDR2); details: Compound concentration 100.0 nM
[27] = target: STE20/SPS1-related proline-alanine-rich protein kinase (Homo sapiens) (UniProt Q9UEW8); details: Compound concentration 100.0 nM
[28] = target: Muscarinic acetylcholine receptor M1 (Homo sapiens) (UniProt P11229); details: Compound concentration 10.0 uM

Cn1cc(Cl)c2c(Oc3c(F)cc(Nc4cc(Cl)nc(N)n4)cc3F)ccnc21 [BAY-4900]
inactive: residual activity [1] 95% | residual activity [2] 90% | residual activity [3] 100% | residual activity [4] 100% | residual activity [5] 78% | residual activity [6] 100% | residual activity [7] 98% | residual activity [8] 98% | residual activity [9] 100% | residual activity [10] 100% | residual activity [11] 96% | residual activity [12] 80% | residual activity [13] 90% | residual activity [14] 75% | residual activity [15] 76% | residual activity [16] 100% | residual activity [17] 100% | residual activity [18] 100% | residual activity [19] 100% | residual activity [20] 100% | residual activity [21] 100% | residual activity [22] 91% | residual activity [23] 83% | residual activity [24] 100% | residual activity [25] 100% | residual activity [26] 99% | residual activity [27] 100% | inhibition [28] -5.04%

Cc1c[nH]c2nccc(Oc3c(F)cc(Nc4cc(Cl)nc(N)n4)cc3F)c12 [BAY-549]
inactive: residual activity [1] 81% | residual activity [2] 94% | residual activity [3] 99% | residual activity [4] 98% | residual activity [5] 73% | residual activity [6] 100% | residual activity [7] 89% | residual activity [8] 100% | residual activity [9] 99% | residual activity [10] 97% | residual activity [11] 76% | residual activity [12] 100% | residual activity [13] 87% | residual activity [14] 100% | residual activity [15] 82% | residual activity [16] 96% | residual activity [17] 92% | residual activity [18] 100% | residual activity [19] 99% | residual activity [20] 86% | residual activity [21] 98% | residual activity [22] 96% | residual activity [23] 90% | residual activity [24] 100% | residual activity [25] 85% | residual activity [26] 94% | residual activity [27] 94% | inhibition [28] -0.22%

Reference: ChEMBL document CHEMBL4507274 (2021)
